From patent publication US6355799B1, “Substituted benzene compounds, process for their preparation, and herbicidal and defoliant compositions containing them” (ISK Americas Incorporated, priority 1997, dated 2002)

What was measured:
Assay type in all cases: in vivo
[1] = test system: upland rice (Oryza sp., var. Tebonnet, RICE); test: Pre-emerge test, crop safety; conditions: rating scale 0-100, 14 days after application
Method in brief: (§1)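 Plants grown in 10 cm pots of sandy loam mix received acetone-dissolved compounds through a moving flat-fan nozzle. Doses ranged from 15 to 1000 g ai/ha. Pre-emerge pots were seeded one day earlier, post-emerge pots 8–21 days earlier. Fourteen days on, each pot was graded 0–100 for damage.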

[2] = test system: field corn (Zea mays L., var. Dekalb 535, CORN); test: Pre-emerge test, crop safety; conditions: rating scale 0-100, 14 days after application
Method in brief: as §1

[3] = test system: upland rice (Oryza sp., var. Tebonnet, RICE); test: Post-emerge test, crop safety; conditions: rating scale 0-100 (0 no damage, 100 complete death), 14 days after application
Method in brief: (§2)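 Compounds in acetone were track-sprayed at 15-1000 g ai/ha (187 l/ha) on sandy loam pots: pre-emerge one day after seeding, post-emerge at 2-3 leaf stage with 0.25% v/v non-ionic surfactant. Phytotoxicity was rated 14 days later on a 0 (no damage) to 100 (complete death) scale.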

[4] = test system: field corn (Zea mays L., var. Dekalb 535, CORN); test: Post-emerge test, crop safety; conditions: rating scale 0-100 (0 no damage, 100 complete death), 14 days after application
Method in brief: as §2

[5] = test system: barnyardgrass (Echinochloa crus-galli, ECHCG); test: Pre-emerge test, greenhouse herbicide activity screening; conditions: rating scale 0-100, 14 days after application
Method in brief: as §2

[6] = test system: sicklepod (Cassia obtusifolia, CASOB); test: as above; conditions: rating scale 0-100, 14 days after application
Method in brief: as §2

[7] = test system: ivyleaf morningglory (Ipomoea hederacea, IPOHE); test: as above; conditions: rating scale 0-100, 14 days after application
Method in brief: as §2

[8] = test system: johnsongrass (Sorghum halepense, SORHA); test: as above; conditions: rating scale 0-100, 14 days after application
Method in brief: as §2

[9] = test system: large crabgrass (Digitaria sanguinalis, DIGSA); test: as above; conditions: rating scale 0-100, 14 days after application
Method in brief: as §2

[10] = test system: lambsquarters (Chenopodium album, CHEAL); test: as above; conditions: rating scale 0-100, 14 days after application
Method in brief: as §2

[11] = test system: green foxtail (Setaria viridis, SETVI); test: as above; conditions: rating scale 0-100, 14 days after application
Method in brief: as §2

[12] = test system: velvetleaf (Abutilon theophrasti, ABUTH); test: as above; conditions: rating scale 0-100, 14 days after application
Method in brief: as §2

[13] = test system: redroot pigweed (Amaranthus retroflexus, AMARE); test: as above; conditions: rating scale 0-100, 14 days after application
Method in brief: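 Visual ratings on a 0-100 scale (0 no damage, 100 all plants dead) were taken at 14 days after treatment. Rates of 15-1000 g ai/ha in acetone, 187 l/ha, were sprayed onto soil one day after planting (pre-emerge) or onto 2-3 leaf plants with 0.25% v/v surfactant (post-emerge).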

[14] = test system: barnyardgrass (Echinochloa crus-galli, ECHCG); test: Post-emerge test, greenhouse herbicide activity screening; conditions: rating scale 0-100 (0 no damage, 100 complete death), 14 days after application
Method in brief: (§3)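 Each test used a mechanized track sprayer delivering 187 l/ha of acetone solution at 15–1000 g ai/ha. Post-emerge foliage at 2–3 leaves was treated with added 0.25% v/v non-ionic surfactant and bottom-watered only. Injury was assessed on day 14, where 100 means total kill.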

[15] = test system: sicklepod (Cassia obtusifolia, CASOB); test: as above; conditions: rating scale 0-100 (0 no damage, 100 complete death), 14 days after application
Method in brief: as §3

[16] = test system: ivyleaf morningglory (Ipomoea hederacea, IPOHE); test: as above; conditions: rating scale 0-100 (0 no damage, 100 complete death), 14 days after application
Method in brief: as §3

[17] = test system: johnsongrass (Sorghum halepense, SORHA); test: as above; conditions: rating scale 0-100 (0 no damage, 100 complete death), 14 days after application
Method in brief: as §3

[18] = test system: large crabgrass (Digitaria sanguinalis, DIGSA); test: as above; conditions: rating scale 0-100 (0 no damage, 100 complete death), 14 days after application
Method in brief: as §3

[19] = test system: lambsquarters (Chenopodium album, CHEAL); test: as above; conditions: rating scale 0-100 (0 no damage, 100 complete death), 14 days after application
Method in brief: as §3

[20] = test system: green foxtail (Setaria viridis, SETVI); test: as above; conditions: rating scale 0-100 (0 no damage, 100 complete death), 14 days after application
Method in brief: as §3

[21] = test system: redroot pigweed (Amaranthus retroflexus, AMARE); test: as above; conditions: rating scale 0-100 (0 no damage, 100 complete death), 14 days after application
Method in brief: as §3

[22] = test system: velvetleaf (Abutilon theophrasti, ABUTH); test: as above; conditions: rating scale 0-100 (0 no damage, 100 complete death), 14 days after application
Method in brief: as §3

COc1c(Cl)cc(F)c(-n2c(=O)cc(C(F)(F)F)n(C)c2=O)c1CC(Cl)C(=O)OCCOc1ccccc1 (single isomer, unassigned) [14-28]
50: Post-emerge Herbicidal Activity, phytotoxicity rating IPOHE ([16]; Rate 63 g ai/ha) | Post-emerge Herbicidal Activity, phytotoxicity rating SORHA ([17]; Rate 250 g ai/ha) | Post-emerge Herbicidal Activity, phytotoxicity rating DIGSA ([18]; Rate 250 g ai/ha)
100: Pre-emerge herbicidal activity, phytotoxicity rating DIGSA ([9]; 250 g ai/ha) | Pre-emerge herbicidal activity, phytotoxicity rating AMARE ([13]; 250 g ai/ha) | Post-emerge Herbicidal Activity, phytotoxicity rating ECHCG ([14]; Rate 63 g ai/ha) | Post-emerge Herbicidal Activity, phytotoxicity rating ECHCG ([14]; Rate 250 g ai/ha) | Post-emerge Herbicidal Activity, phytotoxicity rating CHEAL ([19]; Rate 250 g ai/ha) | Post-emerge Herbicidal Activity, phytotoxicity rating AMARE ([21]; Rate 250 g ai/ha) | Post-emerge Herbicidal Activity, phytotoxicity rating ABUTH ([22]; Rate 63 g ai/ha) | Post-emerge Herbicidal Activity, phytotoxicity rating ABUTH ([22]; Rate 250 g ai/ha)
90: Pre-emerge herbicidal activity, phytotoxicity rating AMARE ([13]; 63 g ai/ha) | Post-emerge Herbicidal Activity, phytotoxicity rating AMARE ([21]; Rate 63 g ai/ha)
0: Pre-emerge phytotoxicity rating, crop damage RICE ([1]; 63 g ai/ha) | Pre-emerge phytotoxicity rating, crop damage RICE ([1]; 250 g ai/ha) | Pre-emerge phytotoxicity rating, crop damage CORN ([2]; 63 g ai/ha) | Post-emerge phytotoxicity rating RICE (crop damage) ([3]; Rate 63 g ai/ha) | Pre-emerge herbicidal activity, phytotoxicity rating ECHCG ([5]; 63 g ai/ha) | Pre-emerge herbicidal activity, phytotoxicity rating CASOB ([6]; 63 g ai/ha) | Pre-emerge herbicidal activity, phytotoxicity rating CASOB ([6]; 250 g ai/ha) | Pre-emerge herbicidal activity, phytotoxicity rating IPOHE ([7]; 63 g ai/ha) | Pre-emerge herbicidal activity, phytotoxicity rating IPOHE ([7]; 250 g ai/ha) | Pre-emerge herbicidal activity, phytotoxicity rating SORHA ([8]; 63 g ai/ha) | Pre-emerge herbicidal activity, phytotoxicity rating DIGSA ([9]; 63 g ai/ha) | Pre-emerge herbicidal activity, phytotoxicity rating CHEAL ([10]; 63 g ai/ha) | Pre-emerge herbicidal activity, phytotoxicity rating SETVI ([11]; 63 g ai/ha) | Pre-emerge herbicidal activity, phytotoxicity rating SETVI ([11]; 250 g ai/ha) | Pre-emerge herbicidal activity, phytotoxicity rating ABUTH ([12]; 63 g ai/ha) | Post-emerge Herbicidal Activity, phytotoxicity rating SORHA ([17]; Rate 63 g ai/ha) | Post-emerge Herbicidal Activity, phytotoxicity rating SETVI ([20]; Rate 63 g ai/ha)
20: Pre-emerge phytotoxicity rating, crop damage CORN ([2]; 250 g ai/ha) | Pre-emerge herbicidal activity, phytotoxicity rating ECHCG ([5]; 250 g ai/ha) | Post-emerge Herbicidal Activity, phytotoxicity rating DIGSA ([18]; Rate 63 g ai/ha)
40: Post-emerge phytotoxicity rating RICE (crop damage) ([3]; Rate 250 g ai/ha) | Pre-emerge herbicidal activity, phytotoxicity rating SORHA ([8]; 250 g ai/ha)
70: Post-emerge phytotoxicity rating CORN (crop damage) ([4]; Rate 250 g ai/ha) | Post-emerge Herbicidal Activity, phytotoxicity rating IPOHE ([16]; Rate 250 g ai/ha)
10: Post-emerge phytotoxicity rating CORN (crop damage) ([4]; Rate 63 g ai/ha)
95: Pre-emerge herbicidal activity, phytotoxicity rating CHEAL ([10]; 250 g ai/ha) | Post-emerge Herbicidal Activity, phytotoxicity rating CHEAL ([19]; Rate 63 g ai/ha)
80: Pre-emerge herbicidal activity, phytotoxicity rating ABUTH ([12]; 250 g ai/ha)
30: Post-emerge Herbicidal Activity, phytotoxicity rating CASOB ([15]; Rate 63 g ai/ha) | Post-emerge Herbicidal Activity, phytotoxicity rating CASOB ([15]; Rate 250 g ai/ha) | Post-emerge Herbicidal Activity, phytotoxicity rating SETVI ([20]; Rate 250 g ai/ha)
